Test results: patent US20070043122A1, “Use of 2,2,3,3, tetramethylcyclopropane carboxylic acid derivatives for treating psychiatric disorders” (YISSUM RESEARCH DEVELOPMENT CO. OF THE HEBREW UNIVERSITY OF …, priority 2003, published 2007)
Like-named read-outs stand apart in the source and are kept apart here. Values belong to the compound of their own block, whether it stands above or below them.

Experiments:
human brain MIP synthase = target: T1, human brain MIP synthase (Homo sapiens, UniProt Q9NPH2); assay: Human brain MIP synthase activity in postmortem prefrontal cortex homogenate; type: biochemical; conditions: for Ki: human brain homogenate; for inhibited MIP synthase activity (which of the other psychotropic drugs): at concentrations 1.5 times greater than their upper therapeutic range (concentrations in Table 2)
T1 construct: supernatant fraction obtained after sonication; from tissue; host or cells: postmortem human prefrontal cortex, 9,000 x g supernatant of sonicated homogenate
T1 sequence (Q9NPH2 1-558): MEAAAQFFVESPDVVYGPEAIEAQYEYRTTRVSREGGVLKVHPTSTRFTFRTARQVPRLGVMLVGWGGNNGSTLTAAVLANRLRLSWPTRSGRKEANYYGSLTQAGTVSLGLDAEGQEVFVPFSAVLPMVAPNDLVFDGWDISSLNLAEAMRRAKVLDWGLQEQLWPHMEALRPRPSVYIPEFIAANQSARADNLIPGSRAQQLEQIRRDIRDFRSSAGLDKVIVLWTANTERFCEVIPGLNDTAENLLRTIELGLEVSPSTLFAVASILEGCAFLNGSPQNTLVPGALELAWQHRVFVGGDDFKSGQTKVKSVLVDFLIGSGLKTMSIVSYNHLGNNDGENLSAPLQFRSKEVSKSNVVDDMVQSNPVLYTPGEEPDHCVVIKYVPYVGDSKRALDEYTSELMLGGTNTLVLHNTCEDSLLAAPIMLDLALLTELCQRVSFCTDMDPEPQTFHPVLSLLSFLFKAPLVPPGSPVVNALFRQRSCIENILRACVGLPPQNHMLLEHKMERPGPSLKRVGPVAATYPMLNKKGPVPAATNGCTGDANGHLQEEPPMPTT
Method: Human brain MIP synthase activity. Five μl of the supernatant fraction obtained after sonication (Ultrasonic Processor, Newtown, Conn., 15 sec at 0.1 output watts at 4° C.) and centrifugation for 20 min at 9,000×g at 4° C. of postmortem human prefrontal cortex (1 mg wet weight in 0.5 ml of 50 mM Tris HCl, pH 7.4) were added to 20 μl reaction mixture containing 4 mM D-glucose-6-phosphate, 1.25 μCi D-glucose-6-phosphate [^14C], 1.6 mM NAD^+, 0.45 mM KCl, 5.4 mM MgCl2 and 0.9 mM Tris HCl, pH 7.6, with or without 5 mU IMPase (Sigma, St. Louis). Incubation with or without various drugs concentrations (table 2 and table 3) was carried out for 3 hours (within the linear range) at 37° C. The reaction was stopped by adding 50 μl cold double distilled water (ddH20). Seventy out of the 80 μl were added to test tubes containing 1.25 g strong basic anion resin (Amberjet 4200, Rohm and Haas, Philadelphia) in 1 ml ddH2O. The mixtures were vortexed for 10 min, then centrifugated for 10 min at 10,000×g at room temperature, and 200 μl supernatant taken for ^14C counting (Liquid Scintillation Counter, Kontron, Basel). The enzymatic activity was calculated by subtracting values without IMPase from the measures with IMPase. The measurements were carried out in triplicate.
Table 2 details the drugs and their concentrations compared with their therapeutic concentrations, studied for possible inhibition of human brain MIP synthase activity. Each drug was tested twice, each experiment in triplicate.

[1] = system: neural tube defects (NTDs); conditions: in vivo; cited from earlier work
IMPase = target: T2, IMPase (Homo sapiens, UniProt P29218); conditions: cited from earlier work
T2 sequence (P29218 1-277): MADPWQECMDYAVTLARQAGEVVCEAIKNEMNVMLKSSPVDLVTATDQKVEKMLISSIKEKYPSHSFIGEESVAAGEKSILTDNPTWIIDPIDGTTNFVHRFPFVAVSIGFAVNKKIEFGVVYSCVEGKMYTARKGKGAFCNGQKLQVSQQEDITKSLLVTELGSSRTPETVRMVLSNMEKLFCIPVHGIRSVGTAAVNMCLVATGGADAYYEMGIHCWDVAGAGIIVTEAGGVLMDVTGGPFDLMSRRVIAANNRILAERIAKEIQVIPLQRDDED

[2] = system: whole brain inositol levels; assay: Whole brain inositol levels in mice after chronic VPA administration; type: in vivo; conditions: for mice whole brain inositol levels: means ± S.E.M.
Method: (§1) Animals. The study was approved by the Ben-Gurion University (Beer Sheva, Israel) Institutional Review Committee for the Use of Animals, and the procedures were carried out in compliance with the declaration of the National Institute of Health Guide for care and use of laboratory animals [Council N R, editor. Guide for the care and use of laboratory animals. Washington, D.C.: National Academy Press; 1996]. […] J Neurochem 1999; 72(2):879-82] which approximate therapeutically-relevant plasma levels. […] Prog Neurobiol 1999; 58(1):31-59]. One saline-injected group was sacrificed right after the injection. All other four groups were sacrificed one hour after the injection. Frontal cortex was removed from all mice right after sacrifice and frozen (−70° C.) till further processing. […] Mice of group II (n=13, controls) were injected saline (IP) twice a day. Animals were then sacrificed, brain removed and dealt as above.
Gas chromatographic measurement of brain inositol levels. Mouse brain free inositol levels were analyzed as trimethylsilyl (TMS) derivatives by gas-liquid chromatography (GC), as described in Shapiro J et al [Shapiro J, Belmaker R H, Beigon A, Seker A, Agam G. Scyllo-Inositol in Post-Mortem Brain of Suicide Victims, Bipolar, Unipolar and Schizophrenic Patients. J Neural Transm 2000; 107: 603-607] using a capillary column. […] Replicate reliability was tested in rat brain. […] Each sample extract was assayed at least in duplicate. The results presented are the average of the replicates. Assays were performed in a blind and balanced design such that each run included samples from all comparison groups.

[3] = system: frontal cortex inositol levels; assay: Frontal cortex inositol levels in mice after a single dose of VPA (gas chromatography); type: in vivo; conditions: acute, single IP dose 300, 600, 800 mg/kg, sacrificed one hour after injection; all concentrations tested
Method: as §1
Gas chromatographic measurement of brain inositol levels. Mouse brain free inositol levels were analyzed as trimethylsilyl (TMS) derivatives by gas-liquid chromatography (GC), as described in Shapiro J et al [Shapiro J, Belmaker R H, Beigon A, Seker A, Agam G. Scyllo-Inositol in Post-Mortem Brain of Suicide Victims, Bipolar, Unipolar and Schizophrenic Patients. J Neural Transm 2000; 107: 603-607] using a capillary column. […] Replicate reliability was tested in rat brain. […]

[4] = 400 mg/kg/day IP twice daily for 9 or 28 days; cited from earlier work
[5] = system: growth cones of newborn rat dorsal root ganglia (DRG) cells; conditions: reversed by addition of myo-inositol; cited from earlier work
growth cones of rat DRGs = assay: Growth cone spreading in rat neuron DRG explants; type: cell-based; conditions: 1 mM, 24 hour exposure
Method: Rat neuron DRG (dorsal root ganglia) explants. […] After 24 hours for attachment, cytosine β-arabinofuranoside (ara-C, 10 μM) was added for 24 hours to kill non-neuronal cells. […] The explants were then fixed in 4% paraformaldehyde in PBS (Phosphate buffered saline) for 20 minutes at room temperature. Growth cones were analysed on an inverted microscope (Zeiss Axiovert) and measured using an NIH Image software.

Structure (SMILES): CNC(=O)C1C(C)(C)C1(C)C [M-TMCD, N-methyl-2,2,3,3-tetramethylcyclopropanecarboxamide]
inhibition at 1300 µM (human brain MIP synthase; read-out: Inhibition of human brain MIP synthase activity): 93%
teratogenicity [1]: lack of teratogenicity

Structure (SMILES): NC(=O)N1c2ccccc2C=Cc2ccccc21 [carbamazepine]
inhibited MIP synthase activity (which of the other psychotropic drugs) (human brain MIP synthase): None
effect on spreading of growth cones of newborn rat DRG cells [5]: increased spreading

Structure (SMILES): CN(C)CCCN1c2ccccc2Sc2ccc(Cl)cc21 [chlorpromazine]
inhibited MIP synthase activity (which of the other psychotropic drugs) (human brain MIP synthase): None

Structure (SMILES): CN(C)CCCN1c2ccccc2CCc2ccc(Cl)cc21 [clomipramine]
inhibited MIP synthase activity (which of the other psychotropic drugs) (human brain MIP synthase): None

Structure (SMILES): CN(C)CCCN1c2ccccc2CCc2ccccc21 [imipramine]
inhibited MIP synthase activity (which of the other psychotropic drugs) (human brain MIP synthase): None

Structure (SMILES): O=C1NC(=O)C(c2ccccc2)(c2ccccc2)N1 [phenytoin]
inhibited MIP synthase activity (which of the other psychotropic drugs) (human brain MIP synthase): None

The next lines start with results.

inhibition at 1000 µM (human brain MIP synthase; 1.0 mM): 100%
Ki (human brain MIP synthase; read-out: Ki for MIP synthase (Dixon's plot)): 210 µM
Ki (human brain MIP synthase; read-out: Ki for MIP synthase (Lineweaver-Burk plot)): 240 µM
Structure (SMILES): CCCC(CCC)C(=O)O [VPA, valproic acid]
effect on IMPase activity (IMPase): no effect
mice whole brain inositol levels ([2]; IP injection of VPA twice a day, 400-800 mg/kg/day, fourteen days): 27.9 ± 3.2
mice whole brain inositol levels ([2]; VPA in drinking water (12.5 g/liter) for 11 days): 30.1 ± 1.7
effect of chronic VPA on brain inositol levels ([2]; eleven days in drinking water or 14 days IP injection): did not deplete brain inositol levels
reduction in frontal cortex inositol concentration [3]: 20%
blood VPA levels [4]: 0.27 ± 0.02 mM
effect on spreading of growth cones of newborn rat DRG cells [5]: increased spreading

inhibition at 1400 µM (human brain MIP synthase; 1.4 mM): 34%
Structure (SMILES): CCCC(CCC)C(N)=O [VPD, valpromide]
effect on growth cone spreading of DRGs (growth cones of rat DRGs): no increased growth cone spreading

inhibited MIP synthase activity (which of the other psychotropic drugs) (human brain MIP synthase): None
Structure (SMILES): O=C(CCCN1CCC(O)(c2ccc(Cl)cc2)CC1)c1ccc(F)cc1 [haloperidol]
